Measurements: US8247211B2, “Glycopeptide antibiotics” (American Cyanamid Company, priority 2001, dated 2012)
Converted amounts (≈) assume the structure as drawn.

How the values were obtained:
Assay in all cases: In vitro antibacterial evaluation: minimum inhibitory concentration (MIC), broth dilution method
Type in all cases: cell-based
Streptococcus sp. = system: Streptococcus sp.
Experimental: (§1) The minimum inhibitory concentration (MIC), the lowest concentration of the antibiotic which inhibits growth of the test organism, is determined by the broth dilution method using Muller-Hinton II […] (Baltimore Biological Laboratories) following the recommendations of the National Committee for Clinical Laboratory Standards [Methods for dilution antimicrobial susceptibility tests for bacteria that grow aerobically, approved standard M7-A2, National Committee for Clinical Laboratory Standards, Villanova, Pa].
(§2) An inoculum level of 5×10^5 CFU/mL, and a range of antibiotic concentrations (64-0.06 μg/mL) is used. […] The test organisms include a spectrum of Gram-positive bacteria comprised of Staphylococcus sp., Streptococcus sp. and Enterococcus sp. These organisms include recent clinical isolates that are resistant to methicillin, penicillin and/or vancomycin.

Staphylococcus sp. = conditions: broth dilution, 18 hours at 35° C.
Experimental: as §1, §2

Enterococcus sp. = system: Enterococcus sp.
Experimental: as §1, §2

Escherichia coli = system: Escherichia coli
Experimental: as §1, §2

MIC Streptococcus pneumoniae (ATCC 6301) (Streptococcus sp.; strain ATCC 6301): 2 µg/mL (≈ 1.42 µM) | MIC Streptococcus pneumoniae (GC 1894) (Streptococcus sp.; strain GC 1894): 1 µg/mL (≈ 0.708 µM) | MIC Streptococcus pyogenes (GC 4563) (Streptococcus sp.; strain GC 4563): 4 µg/mL (≈ 2.83 µM) | MIC Streptococcus agalactiae (GC 4564) (Streptococcus sp.; strain GC 4564): 4 µg/mL (≈ 2.83 µM) | MIC Streptococcus pneumoniae (GC 4565) (Streptococcus sp.; strain GC 4565): 2 µg/mL (≈ 1.42 µM) | MIC Coagulase Negative Staphylococcus (GC 4547) (Staphylococcus sp.; 5×10^5 CFU/mL): 8 µg/mL (≈ 5.66 µM) | MIC Coagulase Negative Staphylococcus (GC 4548) (Staphylococcus sp.; 5×10^5 CFU/mL): 4 µg/mL (≈ 2.83 µM) | MIC Coagulase Negative Staphylococcus (GC 4549) (Staphylococcus sp.; 5×10^5 CFU/mL): 8 µg/mL (≈ 5.66 µM) | MIC Coagulase Negative Staphylococcus (GC 4551) (Staphylococcus sp.; 5×10^5 CFU/mL): 8 µg/mL (≈ 5.66 µM) | MIC Coagulase Negative Staphylococcus (GC 6257) (Staphylococcus sp.; 5×10^5 CFU/mL): 4 µg/mL (≈ 2.83 µM) | MIC Staphylococcus aureus (ATCC 29213) (Staphylococcus sp.; 5×10^5 CFU/mL): 16 µg/mL (≈ 11.3 µM) | MIC Staphylococcus aureus (GC 1131) (Staphylococcus sp.; 5×10^5 CFU/mL): 16 µg/mL (≈ 11.3 µM) | MIC Staphylococcus aureus (GC 3051) (Staphylococcus sp.; 5×10^5 CFU/mL): 16 µg/mL (≈ 11.3 µM) | MIC Staphylococcus aureus (GC 3053) (Staphylococcus sp.; 5×10^5 CFU/mL): 16 µg/mL (≈ 11.3 µM) | MIC Staphylococcus aureus (GC 4541) (Staphylococcus sp.; 5×10^5 CFU/mL): 8 µg/mL (≈ 5.66 µM) | MIC Staphylococcus aureus (GC 4542) (Staphylococcus sp.; 5×10^5 CFU/mL): 16 µg/mL (≈ 11.3 µM) | MIC Staphylococcus aureus (GC 4544) (Staphylococcus sp.; 5×10^5 CFU/mL): 16 µg/mL (≈ 11.3 µM) | MIC Staphylococcus aureus (GC 4545) (Staphylococcus sp.; 5×10^5 CFU/mL): 16 µg/mL (≈ 11.3 µM) | MIC Staphylococcus aureus-SMITH (GC 4543) (Staphylococcus sp.; 5×10^5 CFU/mL): 8 µg/mL (≈ 5.66 µM) | MIC Staphylococcus aureus (ATCC 29213) (Staphylococcus sp.; strain ATCC 29213): 16 µg/mL (≈ 11.3 µM) | MIC Staphylococcus aureus (GC 1131) (Staphylococcus sp.; strain GC 1131): 16 µg/mL (≈ 11.3 µM) | MIC Staphylococcus aureus (GC 3051) (Staphylococcus sp.; strain GC 3051): 16 µg/mL (≈ 11.3 µM) | MIC Staphylococcus aureus (GC 3053) (Staphylococcus sp.; strain GC 3053): 16 µg/mL (≈ 11.3 µM) | MIC Staphylococcus aureus (GC 4541) (Staphylococcus sp.; strain GC 4541): 8 µg/mL (≈ 5.66 µM) | MIC Staphylococcus aureus (GC 4542) (Staphylococcus sp.; strain GC 4542): 16 µg/mL (≈ 11.3 µM) | MIC Staphylococcus aureus-SMITH (GC 4543) (Staphylococcus sp.; strain GC 4543): 8 µg/mL (≈ 5.66 µM) | MIC Staphylococcus aureus (GC 4544) (Staphylococcus sp.; strain GC 4544): 16 µg/mL (≈ 11.3 µM) | MIC Staphylococcus aureus (GC 4545) (Staphylococcus sp.; strain GC 4545): 16 µg/mL (≈ 11.3 µM) | MIC Coagulase Negative Staphylococcus (GC 4547) (Staphylococcus sp.; strain GC 4547): 8 µg/mL (≈ 5.66 µM) | MIC Coagulase Negative Staphylococcus (GC 4548) (Staphylococcus sp.; strain GC 4548): 4 µg/mL (≈ 2.83 µM) | MIC Coagulase Negative Staphylococcus (GC 4549) (Staphylococcus sp.; strain GC 4549): 8 µg/mL (≈ 5.66 µM) | MIC Coagulase Negative Staphylococcus (GC 4551) (Staphylococcus sp.; strain GC 4551): 8 µg/mL (≈ 5.66 µM) | MIC Coagulase Negative Staphylococcus (GC 6257) (Staphylococcus sp.; strain GC 6257): 4 µg/mL (≈ 2.83 µM) | MIC Enterococcus faecalis (ATCC 29212) (Enterococcus sp.; strain ATCC 29212): 32 µg/mL (≈ 22.6 µM) | MIC Enterococcus faecalis (GC 2242) (Enterococcus sp.; strain GC 2242): 32 µg/mL (≈ 22.6 µM) | MIC Enterococcus faecium (GC 2243) (Enterococcus sp.; strain GC 2243): 64 µg/mL (≈ 45.3 µM) | MIC Enterococcus faecalis (GC 2691) (Enterococcus sp.; strain GC 2691): 32 µg/mL (≈ 22.6 µM) | MIC Enterococcus faecalis (GC 3059) (Enterococcus sp.; strain GC 3059): 64 µg/mL (≈ 45.3 µM) | MIC Enterococcus faecalis (GC 4552) (Enterococcus sp.; strain GC 4552): 32 µg/mL (≈ 22.6 µM) | MIC Enterococcus faecalis (GC 4553) (Enterococcus sp.; strain GC 4553): 32 µg/mL (≈ 22.6 µM) | MIC Enterococcus faecalis (GC 4554) (Enterococcus sp.; strain GC 4554): 64 µg/mL (≈ 45.3 µM) | MIC Enterococcus faecium (GC 4556) (Enterococcus sp.; strain GC 4556): 32 µg/mL (≈ 22.6 µM) | MIC Enterococcus faecium (GC 4557) (Enterococcus sp.; strain GC 4557): 8 µg/mL (≈ 5.66 µM) | MIC Enterococcus avium (GC 4558) (Enterococcus sp.; strain GC 4558): 32 µg/mL (≈ 22.6 µM) | MIC Enterococcus faecalis (GC 6189) (Enterococcus sp.; strain GC 6189): 32 µg/mL (≈ 22.6 µM) | MIC Escherichia coli (ATCC 25922) (Escherichia coli; strain ATCC 25922): >64 µg/mL | MIC Escherichia coli (GC 4559) (Escherichia coli; strain GC 4559): >64 µg/mL | MIC Escherichi coli (GC 4560) (Escherichia coli; strain GC 4560): 4 µg/mL (≈ 2.83 µM)
SMILES: COc1cccc(C2OC3C(OC4C(CO)OC(Oc5ccc(CC6NC(=O)C(C(C)c7ccccc7)NC(=O)CNC(=O)C(CO)NC(=O)C(C(O)C7CNC(=N)N7C7OC(CO)C(O)C(O)C7O)NC(=O)C(C(O)C7CNC(=N)N7)NC6=O)cc5)C(O)C4O)OC(CO)C(O)C3O2)c1 (single isomer, unassigned) [Example 137b, Cyclo[glycyl-β-methylphenylalanyl-O-[4-O-[2,3-O-(3-methoxybenzylidene)hexopyranosyl]-hexopyranosyl]tyrosyl-3-(2-iminoimidazolidin-4-yl)seryl-3-(3-hexopyranosyl-2-iminoimidazolidin-4-yl)serylseryl]]
MIC Staphylococcus haemolyticus (GC 4546) (Staphylococcus sp.; 5×10^5 CFU/mL): 8 µg/mL (≈ 5.66 µM) | MIC Staphylococcus haemolyticus (GC 4546) (Staphylococcus sp.; strain GC 4546): 8 µg/mL (≈ 5.66 µM)
